Reference: patent US7855292B2, “Sulfonamide compounds” (Janssen Pharmaceutica NV, priority 2004, dated 2010)

Assays:
[1] = biological target: T1, CCK-1 receptor (Homo sapiens, UniProt P32238); assay: CCK1 binding assay ([125I]-BH-CCK-8S displacement, CHO-K1 membranes); settings: membranes of CHO-K1 cells stably transfected with the CCK-1 receptor, 20 pM [125I]-BH-CCK-8S, 0.3 μM PD-134,308 present, 60 min at 21±3° C.; for Ki: read-out: CCK1 pKi (converted)
T1 construct: expressed in transfected cells; host or cells: CHO-K1
T1 sequence (P32238 1-428): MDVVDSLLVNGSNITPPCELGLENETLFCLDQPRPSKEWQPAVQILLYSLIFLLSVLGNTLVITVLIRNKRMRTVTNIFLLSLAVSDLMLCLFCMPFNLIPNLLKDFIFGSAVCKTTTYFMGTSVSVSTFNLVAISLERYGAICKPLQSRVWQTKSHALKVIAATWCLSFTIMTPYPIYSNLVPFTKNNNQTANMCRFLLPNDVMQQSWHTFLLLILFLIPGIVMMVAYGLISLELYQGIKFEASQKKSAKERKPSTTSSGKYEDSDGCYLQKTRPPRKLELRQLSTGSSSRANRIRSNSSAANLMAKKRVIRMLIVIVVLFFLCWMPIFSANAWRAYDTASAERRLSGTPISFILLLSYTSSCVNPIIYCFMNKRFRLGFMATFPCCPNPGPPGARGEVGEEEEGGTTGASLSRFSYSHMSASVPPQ
Method in brief: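 Membranes from CHO-K1 cells stably expressing CCK-1 incubated 1 h at 21±3° C with 20 pM [125I]-BH-CCK-8S in HEPES buffer pH 7.2 containing 0.3 μM PD-134,308 to block CCK-2. Bound radioactivity read by gamma counting after filtration. pKi derived via Cheng-Prusoff, with specific binding defined using 2-NAP.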

[2] = biological target: T2, CCK2 receptor (Homo sapiens, UniProt P32239); assay: CCK2 binding assay ([125I]-BH-CCK-8S displacement, HEKZFP membranes); settings: membranes of doxycycline-induced HEKZFP cells, 20 pM [125I]-BH-CCK-8S, 60 min at 21±3° C.; for Ki: read-out: CCK2 pKi (converted)
T2 construct: analyzed for ZFP expression as well as CCK2R induction upon addition of doxycycline to the culture medium; endogenous in cells
T2 sequence (P32239 1-447): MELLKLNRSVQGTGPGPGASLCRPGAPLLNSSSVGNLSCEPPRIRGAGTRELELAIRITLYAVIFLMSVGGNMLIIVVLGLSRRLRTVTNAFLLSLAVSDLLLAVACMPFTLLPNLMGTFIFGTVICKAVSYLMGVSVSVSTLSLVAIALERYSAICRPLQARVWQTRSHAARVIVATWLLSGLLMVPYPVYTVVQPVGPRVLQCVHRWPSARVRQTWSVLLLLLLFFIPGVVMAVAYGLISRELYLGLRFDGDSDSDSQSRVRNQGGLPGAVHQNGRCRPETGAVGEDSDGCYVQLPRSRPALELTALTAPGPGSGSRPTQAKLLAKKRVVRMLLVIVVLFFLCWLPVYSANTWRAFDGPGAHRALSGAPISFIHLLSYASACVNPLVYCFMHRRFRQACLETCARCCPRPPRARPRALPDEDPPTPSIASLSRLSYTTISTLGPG

Row | Ki [1] | Ki [2] | CCK1 pKi [1] | CCK2 pKi [2] | Structure (SMILES)
1 | 126 nM | 2000 nM |  |  | COC(=O)[C@@H](NC(=O)c1ccc(I)cc1NS(=O)(=O)c1c(F)cccc1F)[C@H](C)c1ccc(Cl)c(Cl)c1 [Example 116, (2S,3R)-3-(3,4-Dichloro-phenyl)-2-[2-(2,6-difluoro-benzenesulfonylamino)-4-iodo-benzoylamino]-butyric acid methyl ester]
2 | 1580 nM | 100 nM |  |  | O=C(O)C[C@H](Cc1ccc(Cl)c(Cl)c1)NC(=O)c1ccc(Cl)cc1NS(=O)(=O)c1cccc2nccnc12 [Example 64, (S)-3-[4-Chloro-2-(quinoxaline-5-sulfonylamino)-benzoylamino]-4-(3,4-dichloro-phenyl)-butyric acid]
3 | 158 nM | 39.8 nM |  |  | O=C(N[C@@H](Cc1ccc(Cl)c(Br)c1)C(=O)O)c1cc(Cl)c(Cl)cc1NS(=O)(=O)c1cccc2nsnc12 [Example 147, (S)-2-[2-(Benzo[1,2,5]thiadiazole-4-sulfonylamino)-4,5-dichloro-benzoylamino]-3-(3-bromo-4-chloro-phenyl)-propionic acid]
4 | 79.4 nM | 501 nM |  |  | CC(CNC(=O)c1ccc(I)cc1NS(=O)(=O)c1cccc2nsnc12)c1ccc(Cl)cc1 (stereo not drawn) [Example 72, 2-(Benzo[1,2,5]thiadiazole-4-sulfonylamino)-N-[2-(4-chloro-phenyl)-propyl]-4-iodo-benzamide]
5 | 39.8 nM | 200 nM |  |  | O=C(N[C@H](Cc1ccc(Cl)cc1)C(=O)O)c1ccc(I)cc1NS(=O)(=O)c1cccc2nccnc12 [Example 15, (R)-3-(4-Chloro-phenyl)-2-[4-iodo-2-(quinoxaline-5-sulfonylamino)-benzoylamino]-propionic acid]
6 |  |  | 6.6 | 8.2 | O=C(N[C@@H](Cc1ccc(F)c(Br)c1)C(=O)O)c1ccc(Br)cc1NS(=O)(=O)c1cccc2nsnc12 [Example 162, (S)-2-[2-(Benzo[1,2,5]thiadiazole-4-sulfonylamino)-4-bromo-benzoylamino]-3-(3-bromo-4-fluoro-phenyl)-propionic acid]
7 | 316 nM | 631 nM |  |  | COC(=O)[C@H](Cc1ccc(F)c(Br)c1)NC(=O)c1ccc(I)cc1NS(=O)(=O)c1c(F)cccc1F [Example 125, (S)-3-(3-Bromo-4-fluoro-phenyl)-2-[2-(2,6-difluoro-benzenesulfonylamino)-4-iodo-benzoylamino]-propionic acid methyl ester]
8 |  |  | 7.1 | 5.8 | C[C@@H](CNC(=O)c1ccc(Br)cc1NS(=O)(=O)c1cccc2nsnc12)c1ccccc1 [Example 36, (R)-2-(Benzo[1,2,5]thiadiazole-4-sulfonylamino)-4-bromo-N-(2-phenyl-propyl)-benzamide]
9 | 100 nM | 631 nM |  |  | O=C(N[C@@H](Cc1ccc(Cl)c(Cl)c1)C(=O)NCc1cccc(Cl)c1)c1ccc(Cl)cc1NS(=O)(=O)c1cccc2nsnc12 [Example 128, (S)-2-(Benzo[1,2,5]thiadiazole-4-sulfonylamino)-4-chloro-N-[1-(3-chloro-benzylcarbamoyl)-2-(3,4-dichloro-phenyl)-ethyl]-benzamide]
10 | 398 nM | 316 nM |  |  | NC(=O)[C@H](Cc1ccc(Cl)cc1)NC(=O)c1cc(Cl)c(Cl)cc1NS(=O)(=O)c1cccc2nsnc12 [Example 11, (S)-2-(Benzo[1,2,5]thiadiazole-4-sulfonylamino)-N-[1-carbamoyl-2-(4-chloro-phenyl)-ethyl]-4,5-dichloro-benzamide]
11 | 126 nM | 251 nM |  |  | CC(CNC(=O)c1ccc(Cl)cc1NS(=O)(=O)c1c(F)cccc1F)c1ccc(Cl)cc1Cl (stereo not drawn) [Example 43, 4-Chloro-N-[2-(2,4-dichloro-phenyl)-propyl]-2-(2,6-difluoro-benzenesulfonylamino)-benzamide]
12 | 631 nM | 6310 nM |  |  | O=C(NC1Cc2ccccc2C1)c1ccc(Cl)cc1NS(=O)(=O)c1cccc2nsnc12 [Example 50, 2-(Benzo[1,2,5]thiadiazole-4-sulfonylamino)-4-chloro-N-indan-2-yl-benzamide]
13 | 398 nM | 100 nM |  |  | O=C(N[C@@H](Cc1ccc(Cl)cc1)C(=O)O)c1ccc(I)cc1NS(=O)(=O)c1c(F)cccc1F [Example 34, 3-(4-Chloro-phenyl)-2-[2-(2,6-difluoro-benzenesulfonylamino)-4-iodo-benzoylamino]-propionic acid]
14 | 1000 nM | 158 nM |  |  | COC(=O)[C@H](Cc1ccc(F)c(Br)c1)NC(=O)c1ccc(Cl)cc1NS(=O)(=O)c1cccc2nccnc12 [Example 152, (S)-3-(3-Bromo-4-fluoro-phenyl)-2-[4-chloro-2-(quinoxaline-5-sulfonylamino)-benzoylamino]-propionic acid methyl ester]
15 | 501 nM | 100 nM |  |  | O=C(NC(CO)Cc1ccc(Cl)cc1)c1ccc(Cl)cc1NS(=O)(=O)c1cccc2nsnc12 (racemic) [Example 52, (±)-2-(Benzo[1,2,5]thiadiazole-4-sulfonylamino)-4-chloro-N-[2-(4-chloro-phenyl)-1-hydroxymethyl-ethyl]-benzamide]
16 | 251 nM | 1580 nM |  |  | CC(CNC(=O)c1ccc(Cl)cc1NS(=O)(=O)c1c(F)cccc1F)c1ccc(C(F)(F)F)cc1 (stereo not drawn) [Example 45, 4-Chloro-2-(2,6-difluoro-benzenesulfonylamino)-N-[2-(4-trifluoromethyl-phenyl)-propyl]-benzamide]
17 | 63.1 nM | 1260 nM |  |  | Cc1ccc(CC(NC(=O)c2ccc(I)cc2NS(=O)(=O)c2cccc3nccnc23)C(=O)O)cc1 (stereo in doubt) [Example 79, (S)-2-[4-Iodo-2-(quinoxaline-5-sulfonylamino)-benzoylamino]-3-p-tolyl-propionic acid]
18 | 20 nM | 7940 nM |  |  | CC(CNC(=O)c1ccc(Cl)cc1NS(=O)(=O)c1ccc(F)cc1F)c1ccc(Cl)c(Cl)c1 (racemic) [Example 10, (±)-4-Chloro-N-[2-(3,4-dichloro-phenyl)-propyl]-2-(2,4-difluorobenzenesulfonylamino)-benzamide]
19 | 1260 nM | 31.6 nM |  |  | O=C(N[C@@H](Cc1ccc(Cl)cc1)C(=O)O)c1ccc(I)cc1NS(=O)(=O)c1cccc2nccnc12 [Example 90, (S)-3-(4-Chloro-phenyl)-2-[4-iodo-2-(quinoxaline-5-sulfonylamino)-benzoylamino]-propionic acid]
20 | 316 nM | 50.1 nM |  |  | COC(=O)[C@H](Cc1ccc(F)c(Br)c1)NC(=O)c1ccc(I)cc1NS(=O)(=O)c1cccc2nccnc12 [Example 124, (S)-3-(3-Bromo-4-fluoro-phenyl)-2-[4-iodo-2-(quinoxaline-5-sulfonylamino)-benzoylamino]-propionic acid methyl ester]
21 | 501 nM | 7.94 nM |  |  | O=C(N[C@@H](Cc1cccc(I)c1)C(=O)O)c1ccc(I)cc1NS(=O)(=O)c1cccc2nsnc12 [Example 135, (S)-2-[2-(Benzo[1,2,5]thiadiazole-4-sulfonylamino)-4-iodo-benzoylamino]-3-(3-iodo-phenyl)-propionic acid]
22 | 398 nM | 3980 nM |  |  | C[C@H](CNC(=O)c1ccc(Br)cc1NS(=O)(=O)c1c(F)cccc1F)c1ccccc1 [Example 37, (S)-4-Bromo-2-(2,6-difluoro-benzenesulfonylamino)-N-(2-phenyl-propyl)-benzamide]
23 | 63.1 nM | 31.6 nM |  |  | O=C(N[C@@H](Cc1ccc(Cl)c(I)c1)C(=O)O)c1ccc(I)cc1NS(=O)(=O)c1cccc2nsnc12 [Example 92, (S)-2-[2-(Benzo[1,2,5]thiadiazole-4-sulfonylamino)-4-iodo-benzoylamino]-3-(4-chloro-3-iodo-phenyl)-propionic acid]
24 | 100 nM | 1260 nM |  |  | CC(CNC(=O)c1ccc(Br)cc1NS(=O)(=O)c1c(F)cccc1F)c1ccc(Cl)cc1 (stereo not drawn) [Example 24, 4-Bromo-N-[2-(4-chloro-phenyl)-propyl]-2-(2,6-difluoro-benzenesulfonylamino)-benzamide]
